According to patent US7232798B2, “Neuroprotection and neuroegenisis by administering cyclic prolyl glycine” (priority 2001, dated 2007):

Key:
[1] = tested on: 6-OHDA induced nigral-striatal lesion; assay: Apomorphine-induced rotations after 6-OHDA induced nigral-striatal lesion; type: in vivo, Wistar rats
Description: Twenty male Wistar rats (280-310 g) were used. After exposing the skull, 6-OHDA (8 μg in a base of 2 μl 0.9% saline containing 1% ascorbic acid) was administered into the right medial forebrain bundle (MFB) using co-ordinates AP +4.7 mm, R 1.6 mmv-8 mm under 3% halothane anaesthesia. 6-OHDA was injected through a 25 G needle connected via a polyethylene catheter to a 100 μl Hamilton syringe. The 6-OHDA was infused by a microdialysis infusion pump at a rate of 0.5 μl/min. The needle was left in the brain for a further 3 minutes before being slowly withdrawn. The skin was sutured with 2.0 silk and the rats were allowed to recover from anaesthesia. The rats were housed in a holding room with free access to food and water at all times except during behavioural testing.
Cyclic PG was dissolved in saline. Four different doses of cPG (0, 0.1 0.5 1 mg/kg, Bachem) were administered intraperitoneally 2 h post lesion.
At 7 days post-lesion, rats were injected with 0.1 mg/kg apomorphine and the number of contralateral rotations/hour was recorded and calculated using a computerised Rotameter (St Diego Instruments). Experimenter was blinded from the treatment groups.

[2] = tested on: cerebellar microexplants (P4); assay: Glutamate toxicity in P4 cerebellar microexplants and rescue by cPG; type: cell-based, Wistar rats
Description: Cerebellar Cell Culture Preparing and Coating of Cover Slips
Ten coverslips were placed into a large petri dish and washed in 70% alcohol for 5 minutes, then washed with Millipore H2O. The coverslips were air dried, then coated with Poly-D-Lysine (1 mg/ml stock solution in PBS, 90-100 μl) and incubated for 2 hours at 34 C.
Postnatal day 4 Wistar rats were used for the study. Rats were placed in ice for 1 minute, the heads were decapitated and the cerebellum removed on ice. […] The tissue was sieved through (125 μm pore size gaze) and centrifuged (2 minutes at 60 g) two times for a medium exchange into serum-free BSA-supplemented START V medium (Biochrom). The second centrifugation step was done with 1 ml of START V medium. The microexplants were reconstituted into 500 μl of START V medium and put on ice
Two hours after PDL-coating, the slides were washed with Millipore H2O and air dried. Each slide was placed into a small 35 mm petri dish and 40 μl of START V/cell suspension added. The tissue was incubated for 2 hours at 34 C (settlement period). START V-medium (1 ml) was then added to the petri dish and cultivated at 34 C/5% CO2/100% humidity for 48 hours. […] Finally, the microexplants were rinsed in PBS.
10 μl of toxin (L-glutamate-100 mM in Millipore water) was applied simultaneously with cPG (from bachem, 10 mM stock prepared in PBS and diluted to final concentrations between 1-100 nM) for Study 1. A delay in administration of cPG at 6 hours after glutamate treatment was performed for Study 2.

[3] = tested on: rat Hippocampal Organotypic cultures exposed to NMDA; settings: lower (1 μM) or higher (50-100 μM) concentrations reduced neuronal damage to a lesser extent; cited from earlier work
[4] = fetal sheep, cited from earlier work

**Q.** For `O=C1NCC(=O)N2CCC[C@@H]12` [cPG, cyclic Prolyl Glycine], which “number of contralateral rotations/hour” value ([1]; 1 mg cPG intraperitoneally 2 h post lesion, 7 days post-lesion, 0.1 mg/kg apomorphine, n=5, FIG. 5) is on record?
**A.** 154±64.1 rotations/hour

**Q.** And the “reduction of functional deficit (apomorphine induced rotations)” value ([1]; highest dose tested (1 mg/kg), ns)?
**A.** 47%

**Q.** And the “neuron number compared to the normal control group” value ([2]; a further lower dose of cPG)?
**A.** significant increase

**Q.** And the glutamate-induced neurotoxicity ([2]; given either immediately or 6 hours after the glutamate treatment)?
**A.** completely prevented

**Q.** Which “concentration giving the highest degree of neuroprotection” value [3] does the source give for glycine-proline-glutamate [GPE] here?
**A.** 10 µM

**Q.** Which results are given for insulin-like growth factor I [IGF-I]?
**A.** dose at which all the neuroprotective effects are lost ([4]; 1 μg more neuroprotective than 100 ng): 10 µg; dose that usually killed the sheep fetus [4]: ≥ 100 µg

**Q.** With `N[C@@H](CCC(=O)O)C(=O)O` [Glutamate, L-glutamate, reference compound] as the compound, how does the “loss of cerebellum neurons” value ([2]; Study 1, glutamate treatment alone) read?
**A.** 85%
